In patent publication US20070208039A1, “Fungicidal Mixtures for Controlling Rice Pathogens” (priority 2004, published 2007):

Tested on: Cochliobolus miyabeanus
Assay: activity against brown spot of rice caused by Cochliobolus miyabeanus, protective treatment
Format: in vivo
Conditions: individual active compound, rice leaves, 6 days after inoculation
Procedure: The active compounds, separately or jointly, were prepared as a stock solution comprising 0.25% by weight of active compound in acetone or DMSO. 1% by weight of the emulsifier Uniperol® EL (wetting agent having emulsifying and dispersing action based on ethoxylated alkylphenols) was added to this solution, and the mixture was appropriately diluted with water to the desired concentration.
Use example—activity against brown spot of rice caused by Cochliobolus miyabeanus, protective treatment Leaves of potted rice seedlings of the cultivar “Tai-Nong 67” were sprayed to runoff point with an aqueous suspension having the concentration of active compound stated below. The next day, the plants were inoculated with an aqueous spore suspension of Cochliobolus miyabeanus. The test plants were then placed in climatized chambers at 22-24° C. and 95-99% relative atmospheric humidity for six days. The extent of the development of the infection on the leaves was then determined visually.
Evaluation is carried out by determining the percentage of infected leaf areas. These percentages were converted into efficacies.
The efficacy (E) is calculated as follows using Abbot's formula: E=(1−α/β)·100 α corresponds to the fungicidal infection of the treated plants in % and β corresponds to the fungicidal infection of the untreated (control) plants in % An efficacy of 0 means that the infection level of the treated plants corresponds to that of the untreated control plants; an efficacy of 100 means that the treated plants are not infected.
The expected efficacies of mixtures of active compounds are determined using Colby's formula (Colby, R. S., Weeds, 15, 20-22, 1967) and compared with the observed efficacies.
Colby's formula: E=x+y−x·y/100 • E expected efficacy, expressed in % of the untreated control, when using the mixture of the active compounds A and B at the concentrations a and b • x efficacy, expressed in % of the untreated control, when using the active compound A at the concentration a • y efficacy, expressed in % of the untreated control, when using the active compound B at the concentration b

Structure (SMILES) | Efficacy in % of the untreated control (6.25 ppm in the spray liquor) [%] | Efficacy in % of the untreated control (25 ppm in the spray liquor) [%]
CC(=O)O.CCCCCCCCCCCCNC(=N)N [II (dodine), 1-dodecylguanidinium acetate] | 0 | 0
C[C@H](Nc1c(-c2c(F)cc(F)cc2F)c(Cl)nc2ncnn12)C(F)(F)F [B] | 56 | 
CC1CCN(c2c(-c3c(F)cccc3Cl)c(Cl)nc3ncnn23)CC1 [A] | 33 | 
CC1CCN(c2c(-c3c(F)cc(F)cc3F)c(Cl)nc3ncnn23)CC1 [I, 5-chloro-7-(4-methylpiperidin-1-yl)-6-(2,4,6-trifluorophenyl)-[1,2,4]tri-azolo[1,5-a]pyrimidine] | 56 | 
